Values quoted from earlier work, collected in patent US20110294763A1, “TRANSDERMAL DELIVERY OF DICOLFENAC, CARBAMAZEPINE AND BENZYDAMINE” (priority 2009, published 2011).

Solubility in water: insoluble
Compound: CN(C)CCCOc1nn(Cc2ccccc2)c2ccccc12 [Benzydamine base]
